According to publication PMC5107307 (ACS chemical biology, 2016):
Several values for one entry are separate records, joined by “and”; a condition that tells them apart may be missing. Identical values can stand only once. Non-standard residues stand in square brackets, D forms with d. Residues, ends and D or L forms follow the SMILES beside them.

Experiments:
[1] = prior pharmacokinetic/pharmacodynamic data; cited from earlier work
[2] = radiolabeled peptide; cited from earlier work
[3] = test system: constitutively active PTHR1 variants; settings: cited from earlier work
β2-adrenergic receptor = β2-adrenergic receptor (Homo sapiens, UniProt P07550); assay: Effect on isoproterenol-stimulated cAMP production in SGS-72 cells; settings: Fig. S1b
Sequence of β2-adrenergic receptor (P07550 whole entry): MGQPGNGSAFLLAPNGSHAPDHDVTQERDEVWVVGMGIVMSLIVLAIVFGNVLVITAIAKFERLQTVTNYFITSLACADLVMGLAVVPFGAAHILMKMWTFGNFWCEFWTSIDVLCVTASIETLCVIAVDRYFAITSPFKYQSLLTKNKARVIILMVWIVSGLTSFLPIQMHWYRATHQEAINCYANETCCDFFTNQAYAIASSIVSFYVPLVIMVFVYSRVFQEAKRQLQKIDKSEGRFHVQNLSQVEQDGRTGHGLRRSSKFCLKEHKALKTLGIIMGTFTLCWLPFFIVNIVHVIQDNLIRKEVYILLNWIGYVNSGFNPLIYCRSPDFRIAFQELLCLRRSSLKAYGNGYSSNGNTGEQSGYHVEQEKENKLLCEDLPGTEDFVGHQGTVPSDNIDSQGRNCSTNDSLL

proteinase K = proteinase K (Parengyodontium album, UniProt P06873); assay: in vitro; settings: fungal, proteinase K (isolated protease)
Sequence of proteinase K (P06873 106-384): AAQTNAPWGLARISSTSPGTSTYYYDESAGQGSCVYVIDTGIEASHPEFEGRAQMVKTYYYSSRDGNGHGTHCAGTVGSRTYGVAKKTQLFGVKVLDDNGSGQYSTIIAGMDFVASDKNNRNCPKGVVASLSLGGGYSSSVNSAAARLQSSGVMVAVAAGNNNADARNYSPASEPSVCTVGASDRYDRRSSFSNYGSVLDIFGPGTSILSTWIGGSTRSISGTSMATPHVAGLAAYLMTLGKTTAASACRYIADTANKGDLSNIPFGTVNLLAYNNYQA

SGS-72 cells = assay: Effect on basal cAMP levels in SGS-72 cells; settings: Fig. S1a
bovine trypsin = biological target: T1, bovine trypsin (Bos taurus, UniProt P00760); assay: in vitro; type: in vitro ADME
T1 sequence (P00760 24-246): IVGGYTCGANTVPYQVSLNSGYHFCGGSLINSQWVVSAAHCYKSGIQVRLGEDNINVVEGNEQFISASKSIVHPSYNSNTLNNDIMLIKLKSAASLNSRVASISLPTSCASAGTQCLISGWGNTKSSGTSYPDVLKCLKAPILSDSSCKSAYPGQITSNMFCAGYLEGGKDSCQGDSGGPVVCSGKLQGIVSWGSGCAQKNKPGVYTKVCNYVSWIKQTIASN

PTHR1 [4] = biological target: T2, PTHR1 (Homo sapiens, UniProt Q03431); assay: PTHR1 competition binding assay with 125I-PTH
T2 sequence (Q03431 27-593): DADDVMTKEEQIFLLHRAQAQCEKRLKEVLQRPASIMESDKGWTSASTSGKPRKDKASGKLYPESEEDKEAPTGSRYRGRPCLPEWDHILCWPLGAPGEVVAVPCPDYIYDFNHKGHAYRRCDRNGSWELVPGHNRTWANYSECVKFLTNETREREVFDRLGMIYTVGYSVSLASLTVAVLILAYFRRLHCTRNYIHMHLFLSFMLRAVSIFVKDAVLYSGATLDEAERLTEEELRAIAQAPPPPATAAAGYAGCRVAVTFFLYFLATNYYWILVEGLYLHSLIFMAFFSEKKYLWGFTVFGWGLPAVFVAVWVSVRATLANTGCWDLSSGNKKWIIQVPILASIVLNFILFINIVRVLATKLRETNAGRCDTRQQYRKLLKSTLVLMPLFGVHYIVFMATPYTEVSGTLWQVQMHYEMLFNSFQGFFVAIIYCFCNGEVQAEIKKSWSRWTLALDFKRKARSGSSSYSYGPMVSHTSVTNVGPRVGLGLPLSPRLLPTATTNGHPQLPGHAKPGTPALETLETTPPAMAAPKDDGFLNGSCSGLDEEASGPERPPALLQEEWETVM

female CD1 mice = assay: Antagonism of PTH; type: in vivo, mouse; settings: antagonist 500 nmol/kg s.c. one hour after PTH(1–34) 10 nmol/kg
VIP-receptor 1 (VIPR1) = biological target: T3, VIP-receptor 1 (VIPR1) (Homo sapiens, UniProt P32241); assay: Inhibition of VIP-induced cAMP production in SGS-72 cells
T3 sequence (P32241 31-457): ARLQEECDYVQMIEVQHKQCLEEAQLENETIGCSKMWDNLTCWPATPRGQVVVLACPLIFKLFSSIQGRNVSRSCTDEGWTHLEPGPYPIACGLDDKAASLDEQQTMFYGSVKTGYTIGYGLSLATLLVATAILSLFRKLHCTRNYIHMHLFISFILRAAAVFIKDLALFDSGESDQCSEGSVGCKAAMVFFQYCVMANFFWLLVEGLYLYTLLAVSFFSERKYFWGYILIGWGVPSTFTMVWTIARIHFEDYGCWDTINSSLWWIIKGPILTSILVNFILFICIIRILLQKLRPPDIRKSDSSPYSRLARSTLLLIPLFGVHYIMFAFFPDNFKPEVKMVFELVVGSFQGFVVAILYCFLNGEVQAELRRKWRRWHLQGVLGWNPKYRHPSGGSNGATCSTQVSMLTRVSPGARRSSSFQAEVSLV

PTHR1 [5] = biological target: T2, PTHR1; assay: Antagonism of agonist-stimulated cAMP generation in SGS-72 cells; type: cell-based

| SMILES | Half-life of clearance from the circulation [1] [s] | Stability in plasma [2] | Inverse agonism of cAMP signaling at constitutively active PTHR1 variants [3] | Effect on stimulation of cAMP production caused by isoproterenol (β2-adrenergic receptor) | half-life (proteinase K) [s] | Effect on low basal cAMP levels in SGS-72 cells (SGS-72 cells) | Protease stability, half life, Trypsin (bovine trypsin) [s] | half-life (bovine trypsin; bovine, isolated enzyme trypsin) [s] | IC50 (PTHR1 [4]) [nM] | Effect on PTH(1–34)-induced blood Ca2+ response, antagonist given after agonist (female CD1 mice) | Effect on PTH(1–34)-induced blood Pi response, antagonist given after agonist (female CD1 mice) | IC50 (VIP-receptor 1 (VIPR1)) [nM] | IC50 (PTHR1 [5]) | Reduction in M-PTH(1–11) inhibition potency of 2 in comparison to 1 (PTHR1 [5]; SGS-72 cells, cAMP response to M-PTH(1–11)) [fold] |
| --- | --- | --- | --- | --- | --- | --- | --- | --- | --- | --- | --- | --- | --- | --- |
| CC[C@H](C)[C@H](NC(=O)[C@H](CCC(=O)O)NC(=O)[C@H](CO)NC(=O)[C@@H](NC(=O)[C@@H](N)CO)C(C)C)C(=O)N[C@@H](CCC(N)=O)C(=O)N[C@@H](CC(C)C)C(=O)N[C@@H](CCSC)C(=O)N[C@@H](Cc1cnc[nH]1)C(=O)N[C@@H](CC(N)=O)C(=O)N[C@@H](CC(C)C)C(=O)NCC(=O)N[C@@H](CCCCN)C(=O)N[C@@H](Cc1cnc[nH]1)C(=O)N[C@@H](CC(C)C)C(=O)N[C@@H](CC(N)=O)C(=O)N[C@@H](CO)C(=O)N[C@@H](CCSC)C(=O)N[C@@H](CCC(=O)O)C(=O)N[C@@H](CCCN=C(N)N)C(=O)N[C@H](C(=O)N[C@@H](CCC(=O)O)C(=O)N[C@@H](Cc1c[nH]c2ccccc12)C(=O)N[C@@H](CC(C)C)C(=O)N[C@@H](CCCN=C(N)N)C(=O)N[C@@H](CCCCN)C(=O)N[C@@H](CCCCN)C(=O)N[C@@H](CC(C)C)C(=O)N[C@@H](CCC(N)=O)C(=O)N[C@@H](CC(=O)O)C(=O)N[C@H](C(=O)N[C@@H](Cc1cnc[nH]1)C(=O)N[C@@H](CC(N)=O)C(=O)N[C@@H](Cc1ccccc1)C(=O)O)C(C)C)C(C)C [PTH(1–34)] | 300 to 600 | highly stable in plasma |  |  |  |  |  |  |  |  |  |  |  |  |
| CSCC[C@H](NC(=O)[C@H](CO)NC(=O)[C@H](CO)NC(=O)[C@H](CC(C)C)NC(=O)[C@H](Cc1c[nH]cn1)NC(=O)[C@H](CCCCN)NC(=O)[C@@H](Cc1c[nH]c2ccccc12)NC(=O)[C@H](CC(C)C)NC(=O)[C@H](CC(N)=O)NC(=O)[C@H](Cc1c[nH]cn1)NC(=O)[C@H](CCSC)NC(=O)[C@@H](N)Cc1ccccc1)C(=O)N[C@@H](CCC(=O)O)C(=O)N[C@@H](CCCNC(=N)N)C(=O)N[C@H](C(=O)N[C@@H](CCC(=O)O)C(=O)N[C@@H](Cc1c[nH]c2ccccc12)C(=O)N[C@@H](CC(C)C)C(=O)N[C@@H](CCCNC(=N)N)C(=O)N[C@@H](CCCCN)C(=O)N[C@@H](CCCCN)C(=O)N[C@@H](CC(C)C)C(=O)N[C@@H](CCC(N)=O)C(=O)N[C@@H](CC(=O)O)C(=O)N[C@H](C(=O)N[C@@H](Cc1c[nH]cn1)C(=O)N[C@@H](CC(N)=O)C(=O)N[C@@H](Cc1ccccc1)C(N)=O)C(C)C)C(C)C [Peptide 1, bPTH(7–34) DTrp^12] (H-FMHNL[dW]KHLSSMERVEWLRKKLQDVHNF-NH2; N-terminus assumed) |  |  | acts as an inverse agonist | neither α-peptide 1 nor α/β-peptide 2 substantially reduces | 7.8 | neither α-peptide 1 nor α/β-peptide 2 substantially reduces | 42 | 42 | 4.7 ± 1.2 | only small effects | only small effects | > 1000 |  |  |
| CSCC[C@@H](CC(=O)N[C@@H](CCC(=O)O)C(=O)N[C@@H](CCCNC(=N)N)C(=O)N[C@H](C(=O)N[C@@H](CCC(=O)O)CC(=O)N[C@@H](Cc1c[nH]c2ccccc12)C(=O)N[C@@H](CC(C)C)C(=O)N[C@@H](CCCNC(=N)N)C(=O)N[C@@H](CCCCN)CC(=O)N[C@@H](CCCCN)C(=O)N[C@@H](CC(C)C)C(=O)N[C@@H](CCC(N)=O)C(=O)N[C@@H](CC(=O)O)CC(=O)N[C@H](C(=O)N[C@@H](Cc1c[nH]cn1)C(=O)N[C@@H](CC(N)=O)C(=O)N[C@H](CC(N)=O)Cc1ccccc1)C(C)C)C(C)C)NC(=O)[C@H](CO)NC(=O)[C@H](CO)NC(=O)[C@H](CC(C)C)NC(=O)C[C@H](Cc1c[nH]c2ccccc12)NC(=O)[C@H](CCCCN)NC(=O)[C@@H](Cc1c[nH]c2ccccc12)NC(=O)[C@H](CC(C)C)NC(=O)[C@H](CC(N)=O)NC(=O)[C@H](Cc1c[nH]cn1)NC(=O)[C@H](CCSC)NC(=O)[C@@H](N)Cc1ccccc1 [Peptide 2] |  |  |  | neither α-peptide 1 nor α/β-peptide 2 substantially reduces | 150 | neither α-peptide 1 nor α/β-peptide 2 substantially reduces | > 1200 |  | 4.5 ± 1.2 | only small effects | only small effects | > 1000 | 6.15 nM and 10.6 nM and 2.07 nM | < 5 |
